Measured values as given in patent publication US20090088380A1, “GHRH ANALOGS AND THERAPEUTIC USES THEREOF” (priority 2007, published 2009).
“And” between values parts separate entries of the source, which are not always exact repeats. Equal entries are not always repeated. Non-standard residues stand in square brackets, D forms with d. Residues, ends and D or L forms follow the SMILES beside them.

How the values were obtained:
in vivo = conditions: Sprague-Dawley, rat
Method: No mortality, adverse clinical sign, effects on body weight, food consumption, opthalmology, haematology, coagulation, clinical chemistry, urinalysis, organ weights, macroscopic or microscopic observations were noted following the dosing or recovery periods. The no adverse effect level for this study was determined to be 3 mg/kg body weight.

healthy male volunteers = test: Phase I/II study in healthy male volunteers: safety and tolerability; type: in vivo, human
Method: In order to evaluate the safety of the drug, all reported adverse events were considered during the study. The effects of the drug exerted specifically on the liver, renal, thyroid, cardiac and haematological functions were evaluated. The MED was defined as the dose of the GHRH(1-29)NH2 synthetic analog lower than the subsequent dose that produced the best secretion profile of GH.
It was a crossover single-blinded Phase I/II trial of escalating doses of the GHRH(1-29)NH2 synthetic analog controlled versus placebo. Ten healthy middle-aged male volunteers, between 50 and 55 years old, were recruited. All 10 subjects received a single subcutaneous dose of the GHRH(1-29)NH2 synthetic analog (reconstituted in water for injection), per day for 5 days, in a dose range from 5 to 25 μg/kg of body weight (lower than the maximal dose used to treat GH deficiency in children, which was 30 μg/kg of body weight).
After signing the informed consent form, all volunteers were clinically evaluated by the investigator and a chest x-ray and basal electrocardiogram and routine laboratory tests were performed. The analysis included: haemogram (hematocrit, haemoglobin, complete blood cell count, mean cell volume (MCV), mean corpuscular haemoglobin concentration (MCHC) and platelet count), liver function tests (aminotransferases, total proteins, albumin, alkaline phosphatase, billirubin, lactate dehydrogenase and prothrombin time), biochemistry (creatinine, urea, sodium, potassium, calcium, phosphorus, fasting glucose and postprandial glucose), urinalysis (pH, glucose, blood, proteins, and leukocytes), triiodothyronine, thyroxin and thyroid stimulating hormone (TSH), serology, basal level of IGF-1 and urine drug abuse screening.
Once the volunteers were considered eligible, they were hospitalized for a period of 5 consecutive days. On Day 0 of admission successive samples of blood were taken to perform the basal secretion profile of GH during 24 hours. During 5-day hospitalization period, after the initial blood sampling to determine fasting glucose level, the appropriate dose of the GHRH(1-29)NH2 synthetic analog or placebo was administered and multiple samplings were performed to assess the profile of GH, postprandial glucose level and electrocardiogram after 60 minutes of the application of the GHRH(1-29)NH2 synthetic analog/placebo. Eight hours after drug administration, samples were obtained to determine IGF-1 level, thyroid hormones and routine analysis. After 30 days of admission, all the volunteers returned for new clinical evaluation to record any adverse events that could have occurred from the last day of hospitalization period and to take a blood sample for later determination of anti-GHRH(1-29)NH2 synthetic analog antibodies.

[1] = tested on: malnourished subjects with CKD; test: Phase II CKD: dietary assessment (spontaneous nutrient intake); type: in vivo, human; conditions: ITT
Method: Dietary assessments were performed at the baseline visit and were repeated on Day 28. The subjects were asked to write down everything they ate and drank throughout the 3 days preceding the visit. The local dietician then calculated the mean amount of carbohydrates, fat and protein consumed by the subjects per day and calculated energy intake.

[2] = tested on: malnourished subjects with CKD; test: Phase II CKD: abnormal and clinically significant clinical chemistry and blood gas values; type: in vivo, human; conditions: for Subjects with abnormal and clinically significant ALT (%) / Subjects with abnormal and clinically significant AST (%) / Subjects with abnormal and clinically significant Calcium (%) / Subjects with abnormal and clinically significant Chloride (%) / Subjects with abnormal and clinically significant Creatinine (%) / Subjects with abnormal and clinically significant GGT (%) / Subjects with abnormal and clinically significant Phosphate (%) / Subjects with abnormal and clinically significant Potassium (%) / Subjects with abnormal and clinically significant Sodium (%) / Subjects with abnormal and clinically significant Urea (%): safety analysis set
From the text: The number of subjects with abnormal and clinically significant laboratory values at baseline and at Day 28 is presented in Table 35 (haematology) and Table 36 clinical chemistry. Overall, the number of subjects with abnormal and clinically significant laboratory values was similar in the GHRH(1-29)NH2 synthetic analog and placebo groups. No clear trends were observed.

[3] = all volunteers, throughout the study
[4] = Baseline, listed as GHRH(1-29)NH2 synthetic analog
[5] = Day 28, listed as GHRH(1-29)NH2 synthetic analog

SMILES: CC[C@H](C)[C@H](NC(=O)[C@H](C)NC(=O)[C@H](CC(=O)O)NC(=O)[C@@H](C)NC(=O)[C@@H](N)Cc1ccc(O)cc1)C(=O)N[C@@H](Cc1ccccc1)C(=O)N[C@H](C(=O)N[C@@H](CC(N)=O)C(=O)N[C@@H](CO)C(=O)N[C@H](Cc1ccc(O)cc1)C(=O)N[C@@H](CCCNC(=N)N)C(=O)N[C@@H](CCCCN)C(=O)N[C@H](C(=O)N[C@@H](CC(C)C)C(=O)N[C@H](C)C(=O)N[C@@H](CCC(N)=O)C(=O)N[C@@H](CC(C)C)C(=O)N[C@@H](CO)C(=O)N[C@@H](C)C(=O)N[C@@H](CCCNC(=N)N)C(=O)N[C@@H](CCCCN)C(=O)N[C@@H](CCCCN)C(=O)N[C@@H](CC(C)C)C(=O)N[C@@H](CCC(N)=O)C(=O)N[C@@H](CC(=O)O)C(=O)N[C@H](C(=O)N[C@@H](CCSC)C(=O)N[C@@H](CO)C(=O)N[C@@H](CCCNC(=N)N)C(N)=O)[C@@H](C)CC)C(C)C)[C@@H](C)O [GHRH analog #5, [D-Ala^2, D-Tyr^10, D-Ala^15, Lys^22] hGHRH(1-29)-NH2] (H-Y[dA]DAIFTNS[dY]RKVL[dA]QLSARKKLQDIMSR-NH2)
- NOAEL at 672 h (in vivo): 3 mg/kg
- Serious adverse events (healthy male volunteers; 5 to 25 μg/kg sc, healthy male volunteers): no serious adverse events were reported
- Aminotransferase elevation, one case (healthy male volunteers; Day 1 to Day 5): less than 2.5 times the upper normal limit
- Neutrophils, neutropenia case (healthy male volunteers; Day 2, after 10 μg/kg dose): 1,406 neutrophyles/mm3
- White blood cells, leukopenia case (healthy male volunteers; Day 2, after 10 μg/kg dose): 3,800 WBC/mm3
- Eosinophils, eosinophilia in one volunteer (healthy male volunteers; Day 5, 5 μg/kg dose): 808 eosinophyls/mm3
- White blood cells, leukocytosis in one volunteer (healthy male volunteers; Day 5, 5 μg/kg dose): 12,400 WBC/mm3
- Mean decrease of haematocrit (healthy male volunteers; [3]): 10.1±1.9 points
- Mean decrease of haemoglobin (healthy male volunteers; [3]): 2.8 ± 0.8 g/dL
- Thyroid anomalies, cardiac dysfunction (healthy male volunteers; human, in vivo): Neither thyroid anomalies nor cardiac dysfunction were reported
- Energy intake: mean (SD) ([1]; Baseline): 1654 kcal/day and 1654.45 (394.75) kcal/day
- Protein intake: mean (SD) ([1]; Baseline): 62.46 g/day and 62.46 (17.71) g/day
- Energy intake: mean (SD) [1, 4]: 1654.5 kcal/day
- Protein intake: mean (SD) [1, 4]: 62.5 g/day
- Energy intake: mean (SD) ([1]; Day 28): 1533 kcal/day and 1532.70 (384.52) kcal/day
- Protein intake: mean (SD) ([1]; Day 28): 58.49 g/day and 58.49 (19.76) g/day
- Energy intake: mean (SD) [1, 5]: 1532.7 kcal/day
- Protein intake: mean (SD) [1, 5]: 58.5 g/day
- Subjects with abnormal and clinically significant ALT (%) ([2]; Baseline): (0.0%)
- Subjects with abnormal and clinically significant AST (%) ([2]; Baseline): (0.0%)
- Subjects with abnormal and clinically significant Calcium (%) ([2]; Baseline): (0.0%)
- Subjects with abnormal and clinically significant Chloride (%) ([2]; Baseline): (0.0%)
- Subjects with abnormal and clinically significant Creatinine (%) ([2]; Baseline): (100.0%)
- Subjects with abnormal and clinically significant GGT (%) ([2]; Baseline): (0.0%)
- Subjects with abnormal and clinically significant Phosphate (%) ([2]; Baseline): (7.7%)
- Subjects with abnormal and clinically significant Potassium (%) ([2]; Baseline): (30.8%)
- Subjects with abnormal and clinically significant Sodium (%) ([2]; Baseline): (0.0%)
- Subjects with abnormal and clinically significant Urea (%) ([2]; Baseline): (100.0%)
- Number of subjects with abnormal and clinically significant bicarbonate ([2]; Day 28): 3 subjects
- Number of subjects with abnormal and clinically significant calcium ([2]; Day 28): 3 subjects
- Subjects with abnormal and clinically significant ALT (%) ([2]; Day 28): (8.3%)
- Subjects with abnormal and clinically significant AST (%) ([2]; Day 28): (8.3%)
- Subjects with abnormal and clinically significant Calcium (%) ([2]; Day 28): (25.0%)
- Subjects with abnormal and clinically significant Chloride (%) ([2]; Day 28): (0.0%)
- Subjects with abnormal and clinically significant Creatinine (%) ([2]; Day 28): (100.0%)
- Subjects with abnormal and clinically significant GGT (%) ([2]; Day 28): (8.3%)
- Subjects with abnormal and clinically significant Phosphate (%) ([2]; Day 28): (16.7%)
- Subjects with abnormal and clinically significant Potassium (%) ([2]; Day 28): (25.0%)
- Subjects with abnormal and clinically significant Sodium (%) ([2]; Day 28): (0.0%)
- Subjects with abnormal and clinically significant Urea (%) ([2]; Day 28): (100.0%)
- Number of subjects with abnormal and clinically significant bicarbonate ([2]; baseline): 2 subjects
- Number of subjects with abnormal and clinically significant calcium ([2]; baseline): none
